Experimental data: patent US8952024B2, “Herbicidal pyrimidone derivatives” (E I du Pont de Nemours and Company, priority 2009, dated 2015)

Experiments:
Type in all cases: in vivo
[1] = system: ducksalad (Heteranthera limosa); experiment: Test B flooded paddy test; conditions: for Plant response rating, Flood, Ducksalad: 250 g ai/ha, flooded paddy test, visual rating on 0 to 100 scale (0 no effect, 100 complete control) after 13 to 15 days; for Plant response rating, Ducksalad: Flood (flooded paddy test), 13 to 15 days
How it was run: (§1)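 Seedlings reaching 2 leaves are flooded 3 cm deep; test material is delivered to that water, which stays at the same depth. Plants remain in a greenhouse 13–15 days and are then scored by eye versus controls from 0 to 100.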

rice (Oryza sativa) = experiment: Test B flooded paddy test; conditions: for Plant response rating, Flood, Rice: 250 g ai/ha, flooded paddy test, visual rating on 0 to 100 scale (0 no effect, 100 complete control) after 13 to 15 days; for Plant response rating, Rice: Flood (flooded paddy test), 13 to 15 days
How it was run: as §1

[2] = system: umbrella sedge (Cyperus difformis); experiment: Test B flooded paddy test; conditions: for Plant response rating, Flood, Sedge, Umbrella: 250 g ai/ha, flooded paddy test, visual rating on 0 to 100 scale (0 no effect, 100 complete control) after 13 to 15 days; for Plant response rating, Sedge, Umbrella: Flood (flooded paddy test), 13 to 15 days
How it was run: as §1

[3] = system: barnyardgrass (Echinochloa crus-galli); experiment: Test B flooded paddy test; conditions: for Plant response rating, Flood, Barnyardgrass: 250 g ai/ha, flooded paddy test, visual rating on 0 to 100 scale (0 no effect, 100 complete control) after 13 to 15 days; for Plant response rating, Barnyardgrass: Flood (flooded paddy test), 13 to 15 days
How it was run: as §1

[4] = system: large crabgrass (Digitaria sanguinalis); experiment: Test A pre-/postemergence plant response; conditions: for Crabgrass, Large plant response rating: visual injury, 0 to 100 scale (0 no effect, 100 complete control), approx. ten days
How it was run: (§2)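 Approximately ten days after concurrent pre- and postemergence spraying in a greenhouse, plants were compared with untreated controls and rated visually for injury, 0 = no effect to 100 = complete control. Preemergence spray was directed onto loam/sand soil; postemergence targeted 1–2 leaf seedlings.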

[5] = system: velvetleaf (Abutilon theophrasti); experiment: Test A pre-/postemergence plant response; conditions: for Velvetleaf plant response rating: visual injury, 0 to 100 scale (0 no effect, 100 complete control), approx. ten days
How it was run: as §2

corn (Zea mays) = experiment: Test A pre-/postemergence plant response; conditions: for Corn plant response rating: visual injury, 0 to 100 scale (0 no effect, 100 complete control), approx. ten days
How it was run: as §2

[6] = system: wheat (Triticum aestivum); experiment: Test A pre-/postemergence plant response; conditions: for Wheat plant response rating: visual injury, 0 to 100 scale (0 no effect, 100 complete control), approx. ten days
How it was run: as §2

[7] = system: morningglory (Ipomoea spp.); experiment: Test A pre-/postemergence plant response; conditions: for Morningglory plant response rating: visual injury, 0 to 100 scale (0 no effect, 100 complete control), approx. ten days
How it was run: as §2

[8] = system: giant foxtail (Setaria faberii); experiment: Test A pre-/postemergence plant response; conditions: for Foxtail, Giant plant response rating: visual injury, 0 to 100 scale (0 no effect, 100 complete control), approx. ten days
How it was run: as §2

[9] = system: barnyardgrass (Echinochloa crus-galli); experiment: Test A pre-/postemergence plant response; conditions: for Barnyardgrass plant response rating: visual injury, 0 to 100 scale (0 no effect, 100 complete control), approx. ten days
How it was run: as §2

[10] = system: pigweed (Amaranthus retroflexus); experiment: Test A pre-/postemergence plant response; conditions: for Pigweed plant response rating: visual injury, 0 to 100 scale (0 no effect, 100 complete control), approx. ten days
How it was run: as §2

[11] = 62 g ai/ha, scale of 0 to 100 where 0 is no effect and 100 is complete control
[12] = 125 g ai/ha, scale 0 to 100, 0 is no effect, 100 is complete control
[13] = Flood, 31 g ai/ha, scale 0 to 100 (0 no effect, 100 complete control)
[14] = Postemergence, 125 g ai/ha, 0 to 100 scale where 0 is no effect and 100 is complete control
[15] = Preemergence, 125 g ai/ha, 0 to 100 scale, 0 = no effect, 100 = complete control
[16] = Preemergence, 500 g ai/ha, 0 to 100 scale, 0 = no effect, 100 = complete control

What does the source list for Cc1cccc(-c2ncc(C(=O)C3=C(O)CCCC3=O)c(=O)n2-c2ccccc2C)c1 [Compound 210]?
Plant response rating, Flood, Ducksalad [1]: 90; Plant response rating, Ducksalad [1, 11]: 85; Plant response rating, Ducksalad [1, 12]: 90; Ducksalad plant response rating [1, 13]: 75; Plant response rating, Flood, Rice (rice (Oryza sativa)): 25; Plant response rating, Rice (rice (Oryza sativa); [11]): 0; Plant response rating, Rice (rice (Oryza sativa); [12]): 20; Rice plant response rating (rice (Oryza sativa); [13]): 0; Plant response rating, Flood, Sedge, Umbrella [2]: 80; Plant response rating, Sedge, Umbrella [2, 11]: 75; Plant response rating, Sedge, Umbrella [2, 12]: 75; Sedge, Umbrella plant response rating [2, 13]: 50; Plant response rating, Flood, Barnyardgrass [3]: 40; Plant response rating, Barnyardgrass [3, 11]: 0; Plant response rating, Barnyardgrass [3, 12]: 20; Barnyardgrass plant response rating [3, 13]: 0; Plant response rating, Crabgrass, Large [4, 14]: 10; Crabgrass, Large plant response rating ([4]; Postemergence, 500 g ai/ha): 30; Plant response rating, Crabgrass, Large [4, 15]: 10; Plant response rating, Crabgrass, Large [4, 16]: 50; Plant response rating, Velvetleaf [5, 14]: 70; Velvetleaf plant response rating ([5]; Postemergence, 500 g ai/ha): 70; Plant response rating, Velvetleaf [5, 15]: 40; Plant response rating, Velvetleaf [5, 16]: 60; Plant response rating, Corn (corn (Zea mays); [14]): 0; Corn plant response rating (corn (Zea mays); Postemergence, 500 g ai/ha): 0; Plant response rating, Corn (corn (Zea mays); [15]): 0; Plant response rating, Corn (corn (Zea mays); [16]): 0; Plant response rating, Wheat [6, 14]: 0; Wheat plant response rating ([6]; Postemergence, 500 g ai/ha): 10; Plant response rating, Wheat [6, 15]: 0; Plant response rating, Wheat [6, 16]: 0; Plant response rating, Morningglory [7, 14]: 50; Morningglory plant response rating ([7]; Postemergence, 500 g ai/ha): 100; Plant response rating, Morningglory [7, 15]: 0; Plant response rating, Morningglory [7, 16]: 50; Plant response rating, Foxtail, Giant [8, 14]: 10; Foxtail, Giant plant response rating ([8]; Postemergence, 500 g ai/ha): 70; Plant response rating, Foxtail, Giant [8, 15]: 20; Plant response rating, Foxtail, Giant [8, 16]: 90; Plant response rating, Barnyardgrass [9, 14]: 40; Barnyardgrass plant response rating ([9]; Postemergence, 500 g ai/ha): 90; Plant response rating, Barnyardgrass [9, 15]: 10; Plant response rating, Barnyardgrass [9, 16]: 70; Plant response rating, Pigweed [10, 14]: 90; Pigweed plant response rating ([10]; Postemergence, 500 g ai/ha): 100; Plant response rating, Pigweed [10, 15]: 60; Plant response rating, Pigweed [10, 16]: 100

How did the “Plant response rating, Flood, Ducksalad” value [1] turn out when C=CCCn1c(-c2ccccc2)ncc(C(=O)C2=C(O)CCCC2=O)c1=O [Compound 214] was run?
The value was 95.

And the “Plant response rating, Ducksalad” value [1, 11]?
The value was 0.

What about the “Plant response rating, Flood, Rice” value (rice (Oryza sativa)) of the same compound?
The value was 15.

What about the “Plant response rating, Rice” value (rice (Oryza sativa); [11]) of the same compound?
The value was 0.

What about the “Plant response rating, Flood, Sedge, Umbrella” value [2] of the same compound?
The value was 85.

What about the “Plant response rating, Sedge, Umbrella” value [2, 11] of the same compound?
Its value is 0.

And the “Plant response rating, Flood, Barnyardgrass” value [3]?
Its value is 20.

What about the “Plant response rating, Barnyardgrass” value [3, 11] of the same compound?
Its value is 0.

And the “Plant response rating, Crabgrass, Large” value [4, 14]?
Its value is 80.

And the “Crabgrass, Large plant response rating” value ([4]; Postemergence, 500 g ai/ha)?
The value was 90.

What about the “Plant response rating, Crabgrass, Large” value [4, 15] of the same compound?
The value was 30.

What about the “Plant response rating, Crabgrass, Large” value [4, 16] of the same compound?
Its value is 90.

And the “Plant response rating, Velvetleaf” value [5, 14]?
The value was 100.

What about the “Velvetleaf plant response rating” value ([5]; Postemergence, 500 g ai/ha) of the same compound?
Its value is 100.

What about the “Plant response rating, Velvetleaf” value [5, 15] of the same compound?
Its value is 90.

What about the “Plant response rating, Velvetleaf” value [5, 16] of the same compound?
The value was 100.

What about the “Plant response rating, Corn” value (corn (Zea mays); [14]) of the same compound?
Its value is 0.

What about the “Corn plant response rating” value (corn (Zea mays); Postemergence, 500 g ai/ha) of the same compound?
Its value is 30.

What about the “Plant response rating, Corn” value (corn (Zea mays); [15]) of the same compound?
Its value is 0.

And the “Plant response rating, Corn” value (corn (Zea mays); [16])?
The value was 0.

What about the “Plant response rating, Wheat” value [6, 14] of the same compound?
Its value is 0.

What about the “Wheat plant response rating” value ([6]; Postemergence, 500 g ai/ha) of the same compound?
The value was 20.

What about the “Plant response rating, Wheat” value [6, 15] of the same compound?
The value was 0.

What about the “Plant response rating, Wheat” value [6, 16] of the same compound?
The value was 30.

What about the “Plant response rating, Morningglory” value [7, 14] of the same compound?
The value was 80.

And the “Morningglory plant response rating” value ([7]; Postemergence, 500 g ai/ha)?
The value was 100.

And the “Plant response rating, Morningglory” value [7, 15]?
The value was 0.

And the “Plant response rating, Morningglory” value [7, 16]?
The value was 80.

What about the “Plant response rating, Foxtail, Giant” value [8, 14] of the same compound?
The value was 50.

And the “Foxtail, Giant plant response rating” value ([8]; Postemergence, 500 g ai/ha)?
Its value is 90.

What about the “Plant response rating, Foxtail, Giant” value [8, 15] of the same compound?
The value was 30.

What about the “Plant response rating, Foxtail, Giant” value [8, 16] of the same compound?
The value was 70.

And the “Plant response rating, Barnyardgrass” value [9, 14]?
The value was 80.

And the “Barnyardgrass plant response rating” value ([9]; Postemergence, 500 g ai/ha)?
Its value is 90.

And the “Plant response rating, Barnyardgrass” value [9, 15]?
Its value is 10.

What about the “Plant response rating, Barnyardgrass” value [9, 16] of the same compound?
Its value is 60.

And the “Plant response rating, Pigweed” value [10, 14]?
The value was 90.

And the “Pigweed plant response rating” value ([10]; Postemergence, 500 g ai/ha)?
The value was 100.

And the “Plant response rating, Pigweed” value [10, 15]?
The value was 70.

What about the “Plant response rating, Pigweed” value [10, 16] of the same compound?
The value was 90.
